Publication PMC9851200, “Multiparameter phenotypic screening for endogenous TFEB and TFE3 translocation identifies novel chemical series modulating lysosome function” (Autophagy, 2022)

Columns and labels:
Type in all cases: binding
[1] = target: kinases (KINOMEscan panel) (Homo sapiens, UniProt P42336, E542K); details: NEW KINOMEscan
[2] = target: kinases (KINOMEscan panel) (Homo sapiens, UniProt P78368); details: kinase CSNK1G2; NEW KINOMEscan
[3] = target: kinases (KINOMEscan panel) (Homo sapiens, UniProt Q96GD4); details: kinase AURKB; NEW KINOMEscan
[4] = target: kinases (KINOMEscan panel) (Homo sapiens, UniProt P10721, T670I/V559D); details: NEW KINOMEscan
[5] = target: T1, kinases (KINOMEscan panel) (Homo sapiens, UniProt O15111)
T1 sequence (O15111 1-745): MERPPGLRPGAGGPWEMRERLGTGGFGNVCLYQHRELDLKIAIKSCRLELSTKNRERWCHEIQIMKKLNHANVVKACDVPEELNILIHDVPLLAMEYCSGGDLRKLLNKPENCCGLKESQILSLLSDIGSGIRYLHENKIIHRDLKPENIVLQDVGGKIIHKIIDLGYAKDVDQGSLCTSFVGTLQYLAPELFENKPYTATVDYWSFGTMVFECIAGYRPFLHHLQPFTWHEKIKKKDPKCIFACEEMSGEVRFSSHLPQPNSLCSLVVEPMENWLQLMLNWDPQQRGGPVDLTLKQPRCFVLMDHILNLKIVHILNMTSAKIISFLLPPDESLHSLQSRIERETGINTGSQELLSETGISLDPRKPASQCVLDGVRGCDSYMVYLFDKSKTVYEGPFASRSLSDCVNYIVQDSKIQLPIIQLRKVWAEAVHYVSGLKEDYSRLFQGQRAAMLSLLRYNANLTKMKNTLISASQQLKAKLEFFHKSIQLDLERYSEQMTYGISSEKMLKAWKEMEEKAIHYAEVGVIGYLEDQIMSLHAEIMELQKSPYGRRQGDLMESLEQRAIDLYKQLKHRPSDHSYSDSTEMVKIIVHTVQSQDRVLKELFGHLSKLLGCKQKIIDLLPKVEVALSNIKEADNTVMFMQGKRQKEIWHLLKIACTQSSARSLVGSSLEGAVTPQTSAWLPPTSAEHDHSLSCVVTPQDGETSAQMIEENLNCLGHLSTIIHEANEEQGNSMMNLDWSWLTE

[6] = target: kinases (KINOMEscan panel) (Homo sapiens, UniProt Q13233); details: MAP3K1; NEW KINOMEscan
[7] = target: T2, kinases (KINOMEscan panel) (Homo sapiens, UniProt P51955); details: kinase NEK2; NEW KINOMEscan
T2 sequence (P51955 1-445): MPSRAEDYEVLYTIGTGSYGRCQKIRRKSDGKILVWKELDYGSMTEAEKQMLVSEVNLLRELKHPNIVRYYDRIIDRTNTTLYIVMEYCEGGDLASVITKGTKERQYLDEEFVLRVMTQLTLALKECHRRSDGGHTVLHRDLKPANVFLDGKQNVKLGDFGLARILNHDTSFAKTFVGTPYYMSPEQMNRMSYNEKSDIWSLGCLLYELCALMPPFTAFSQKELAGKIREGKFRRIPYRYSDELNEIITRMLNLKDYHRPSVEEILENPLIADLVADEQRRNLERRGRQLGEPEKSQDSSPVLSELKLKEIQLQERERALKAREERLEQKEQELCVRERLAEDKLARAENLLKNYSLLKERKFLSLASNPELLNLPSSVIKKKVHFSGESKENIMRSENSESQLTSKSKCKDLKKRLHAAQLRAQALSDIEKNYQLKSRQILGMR

[8] = target: kinases (KINOMEscan panel) (Homo sapiens, UniProt P17612); details: kinase PRKACA; NEW KINOMEscan
[9] = target: T3, kinases (KINOMEscan panel) (Homo sapiens, UniProt P78356); details: PIP4K2B; NEW KINOMEscan
T3 sequence (P78356 1-416): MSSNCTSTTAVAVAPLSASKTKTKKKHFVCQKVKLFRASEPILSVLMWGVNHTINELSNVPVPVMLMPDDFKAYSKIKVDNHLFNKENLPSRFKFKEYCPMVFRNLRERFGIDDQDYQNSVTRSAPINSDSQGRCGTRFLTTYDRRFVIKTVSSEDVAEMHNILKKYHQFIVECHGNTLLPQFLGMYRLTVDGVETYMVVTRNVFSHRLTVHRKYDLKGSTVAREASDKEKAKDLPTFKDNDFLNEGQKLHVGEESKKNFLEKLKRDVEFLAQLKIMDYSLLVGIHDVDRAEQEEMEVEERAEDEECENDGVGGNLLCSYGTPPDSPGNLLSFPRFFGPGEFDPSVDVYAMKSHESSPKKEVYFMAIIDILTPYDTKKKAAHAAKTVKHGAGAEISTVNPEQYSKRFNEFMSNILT

[10] = target: kinases (KINOMEscan panel) (Homo sapiens, UniProt Q5S007, G2019S); details: NEW KINOMEscan
Sequence of kinases (KINOMEscan panel) (Homo sapiens, UniProt Q5S007, G2019S) (Q5S007 whole entry G2019S): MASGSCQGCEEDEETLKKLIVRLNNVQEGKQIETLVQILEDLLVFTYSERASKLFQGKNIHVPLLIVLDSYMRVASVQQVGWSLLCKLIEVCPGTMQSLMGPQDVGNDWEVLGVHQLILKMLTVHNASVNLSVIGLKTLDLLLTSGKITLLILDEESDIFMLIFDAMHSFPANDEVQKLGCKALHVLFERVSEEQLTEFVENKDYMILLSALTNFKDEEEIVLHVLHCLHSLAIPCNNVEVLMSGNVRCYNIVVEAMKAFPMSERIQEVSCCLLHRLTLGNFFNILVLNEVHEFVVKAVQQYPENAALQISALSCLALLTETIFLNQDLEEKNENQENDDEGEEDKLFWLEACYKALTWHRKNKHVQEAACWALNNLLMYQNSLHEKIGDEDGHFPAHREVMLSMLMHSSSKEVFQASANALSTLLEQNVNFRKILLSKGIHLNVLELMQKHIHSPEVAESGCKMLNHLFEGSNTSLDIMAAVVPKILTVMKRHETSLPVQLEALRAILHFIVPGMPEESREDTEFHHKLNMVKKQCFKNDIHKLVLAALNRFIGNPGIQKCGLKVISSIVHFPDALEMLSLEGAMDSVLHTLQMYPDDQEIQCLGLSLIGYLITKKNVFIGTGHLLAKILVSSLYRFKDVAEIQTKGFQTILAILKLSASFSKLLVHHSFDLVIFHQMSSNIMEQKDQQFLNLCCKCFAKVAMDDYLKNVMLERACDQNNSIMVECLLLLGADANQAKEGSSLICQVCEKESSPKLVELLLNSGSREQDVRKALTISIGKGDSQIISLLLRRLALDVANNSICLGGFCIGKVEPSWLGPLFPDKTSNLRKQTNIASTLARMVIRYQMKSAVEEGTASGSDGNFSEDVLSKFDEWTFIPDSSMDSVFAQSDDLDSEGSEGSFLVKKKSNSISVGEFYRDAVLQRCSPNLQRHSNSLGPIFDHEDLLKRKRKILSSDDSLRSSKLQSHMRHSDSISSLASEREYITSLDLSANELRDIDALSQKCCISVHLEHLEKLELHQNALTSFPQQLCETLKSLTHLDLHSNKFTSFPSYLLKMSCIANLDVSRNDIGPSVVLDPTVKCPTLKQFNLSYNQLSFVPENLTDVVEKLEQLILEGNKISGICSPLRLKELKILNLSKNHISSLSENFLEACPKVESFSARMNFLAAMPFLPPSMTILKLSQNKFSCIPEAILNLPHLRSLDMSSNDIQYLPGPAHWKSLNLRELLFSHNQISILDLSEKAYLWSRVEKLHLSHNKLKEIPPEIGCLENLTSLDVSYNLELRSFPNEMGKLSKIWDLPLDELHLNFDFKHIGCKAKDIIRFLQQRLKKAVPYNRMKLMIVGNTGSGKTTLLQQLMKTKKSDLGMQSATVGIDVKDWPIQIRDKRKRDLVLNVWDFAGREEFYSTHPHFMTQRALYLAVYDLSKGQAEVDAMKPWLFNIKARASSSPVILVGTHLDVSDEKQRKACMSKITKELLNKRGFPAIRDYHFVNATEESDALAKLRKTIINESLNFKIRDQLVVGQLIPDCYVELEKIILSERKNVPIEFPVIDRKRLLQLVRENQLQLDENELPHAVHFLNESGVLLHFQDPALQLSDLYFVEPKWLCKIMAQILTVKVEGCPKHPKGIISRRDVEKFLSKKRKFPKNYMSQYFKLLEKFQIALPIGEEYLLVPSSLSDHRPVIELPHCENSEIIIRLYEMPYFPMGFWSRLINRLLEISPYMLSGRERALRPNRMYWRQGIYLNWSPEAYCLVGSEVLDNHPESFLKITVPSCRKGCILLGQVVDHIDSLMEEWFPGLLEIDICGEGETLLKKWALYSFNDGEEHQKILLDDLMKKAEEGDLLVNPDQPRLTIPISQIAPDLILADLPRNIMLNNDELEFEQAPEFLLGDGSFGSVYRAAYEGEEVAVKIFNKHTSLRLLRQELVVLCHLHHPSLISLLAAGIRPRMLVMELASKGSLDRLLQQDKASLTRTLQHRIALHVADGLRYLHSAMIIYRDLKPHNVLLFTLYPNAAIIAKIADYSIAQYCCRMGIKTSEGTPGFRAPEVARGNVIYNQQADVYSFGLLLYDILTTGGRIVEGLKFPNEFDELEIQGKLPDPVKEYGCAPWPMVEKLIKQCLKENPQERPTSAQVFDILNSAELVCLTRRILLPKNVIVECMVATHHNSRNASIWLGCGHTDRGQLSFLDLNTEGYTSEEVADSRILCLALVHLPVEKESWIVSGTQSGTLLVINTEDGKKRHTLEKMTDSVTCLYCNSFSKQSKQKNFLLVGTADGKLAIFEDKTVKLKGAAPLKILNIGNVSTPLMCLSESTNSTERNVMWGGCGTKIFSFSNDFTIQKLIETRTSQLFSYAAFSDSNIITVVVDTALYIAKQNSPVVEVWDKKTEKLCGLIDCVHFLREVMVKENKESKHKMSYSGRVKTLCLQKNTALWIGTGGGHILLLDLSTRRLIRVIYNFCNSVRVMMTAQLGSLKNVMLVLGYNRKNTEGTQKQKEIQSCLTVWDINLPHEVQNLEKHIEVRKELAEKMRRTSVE

[11] = target: kinases (KINOMEscan panel) (Homo sapiens, UniProt P00533, L861Q); details: kinase EGFR(L861Q); NEW KINOMEscan
[12] = target: kinases (KINOMEscan panel) (Homo sapiens, UniProt Q9P0L2); details: NEW KINOMEscan
[13] = target: kinases (KINOMEscan panel) (Homo sapiens, UniProt P00519, F317L); details: NEW KINOMEscan; for KINOMEscan ABL1(F317L)-phosphorylated: kinase ABL1(F317L)-phosphorylated
Sequence of kinases (KINOMEscan panel) (Homo sapiens, UniProt P00519, F317L) (P00519 whole entry F317L): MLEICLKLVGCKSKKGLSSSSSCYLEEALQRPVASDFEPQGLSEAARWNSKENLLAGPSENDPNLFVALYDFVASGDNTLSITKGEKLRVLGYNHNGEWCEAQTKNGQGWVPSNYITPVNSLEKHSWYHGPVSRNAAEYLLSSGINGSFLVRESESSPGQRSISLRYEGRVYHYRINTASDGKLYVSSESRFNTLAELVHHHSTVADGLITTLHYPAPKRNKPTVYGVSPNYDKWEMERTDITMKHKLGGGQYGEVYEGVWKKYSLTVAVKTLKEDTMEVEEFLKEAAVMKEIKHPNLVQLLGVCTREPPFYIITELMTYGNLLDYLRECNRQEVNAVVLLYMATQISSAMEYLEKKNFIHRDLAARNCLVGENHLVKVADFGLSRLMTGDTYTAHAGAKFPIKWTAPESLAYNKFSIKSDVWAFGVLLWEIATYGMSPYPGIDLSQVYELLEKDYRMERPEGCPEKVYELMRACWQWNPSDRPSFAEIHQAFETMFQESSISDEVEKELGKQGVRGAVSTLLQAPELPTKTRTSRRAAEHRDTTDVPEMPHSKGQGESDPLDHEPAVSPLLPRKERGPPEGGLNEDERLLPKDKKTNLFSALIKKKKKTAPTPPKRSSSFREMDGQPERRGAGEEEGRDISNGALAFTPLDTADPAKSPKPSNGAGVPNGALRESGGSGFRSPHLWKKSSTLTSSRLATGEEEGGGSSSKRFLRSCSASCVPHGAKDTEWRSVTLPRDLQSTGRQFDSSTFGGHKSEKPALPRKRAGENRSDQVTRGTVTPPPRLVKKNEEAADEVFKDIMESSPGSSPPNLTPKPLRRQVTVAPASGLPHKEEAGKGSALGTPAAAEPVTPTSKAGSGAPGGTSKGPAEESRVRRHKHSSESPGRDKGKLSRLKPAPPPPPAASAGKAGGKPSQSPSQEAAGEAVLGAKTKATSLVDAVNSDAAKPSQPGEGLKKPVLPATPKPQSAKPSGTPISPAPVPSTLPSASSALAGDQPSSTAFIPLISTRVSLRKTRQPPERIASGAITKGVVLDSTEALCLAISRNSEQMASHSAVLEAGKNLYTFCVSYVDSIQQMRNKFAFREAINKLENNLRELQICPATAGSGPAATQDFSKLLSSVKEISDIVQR

[14] = target: kinases (KINOMEscan panel) (Homo sapiens, UniProt Q9BQI3)
[15] = target: kinases (KINOMEscan panel) (Homo sapiens, UniProt Q5S007); details: NEW KINOMEscan
Sequence of kinases (KINOMEscan panel) (Homo sapiens, UniProt Q5S007) (Q5S007 whole entry): as the sequence (Q5S007 whole entry G2019S) above, with S2019G counted along it

[16] = target: kinases (KINOMEscan panel) (Homo sapiens, UniProt Q9NYY3); details: PLK2; NEW KINOMEscan
Sequence of kinases (KINOMEscan panel) (Homo sapiens, UniProt Q9NYY3) (Q9NYY3 whole entry): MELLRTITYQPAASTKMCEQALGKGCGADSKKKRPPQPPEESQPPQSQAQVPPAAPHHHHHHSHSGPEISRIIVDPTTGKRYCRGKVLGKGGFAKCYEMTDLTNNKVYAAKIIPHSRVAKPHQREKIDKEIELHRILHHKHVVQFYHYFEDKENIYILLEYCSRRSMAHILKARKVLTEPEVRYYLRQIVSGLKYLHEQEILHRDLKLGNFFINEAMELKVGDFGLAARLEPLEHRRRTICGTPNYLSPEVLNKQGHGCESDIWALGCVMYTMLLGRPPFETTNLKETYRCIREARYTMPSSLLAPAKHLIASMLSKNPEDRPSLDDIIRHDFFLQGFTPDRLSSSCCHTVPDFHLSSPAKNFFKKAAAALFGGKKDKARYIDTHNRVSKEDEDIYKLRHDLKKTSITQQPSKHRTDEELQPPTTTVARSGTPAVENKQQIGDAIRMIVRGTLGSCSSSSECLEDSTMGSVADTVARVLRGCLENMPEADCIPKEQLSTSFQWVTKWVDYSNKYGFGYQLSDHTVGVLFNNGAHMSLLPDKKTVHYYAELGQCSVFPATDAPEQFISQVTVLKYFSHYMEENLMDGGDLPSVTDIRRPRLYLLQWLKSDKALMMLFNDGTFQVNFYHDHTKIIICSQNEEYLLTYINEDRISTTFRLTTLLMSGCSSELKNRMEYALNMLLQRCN

[17] = target: kinases (KINOMEscan panel) (Homo sapiens, UniProt P24723); details: kinase PRKCH; NEW KINOMEscan
Sequence of kinases (KINOMEscan panel) (Homo sapiens, UniProt P24723) (P24723 whole entry): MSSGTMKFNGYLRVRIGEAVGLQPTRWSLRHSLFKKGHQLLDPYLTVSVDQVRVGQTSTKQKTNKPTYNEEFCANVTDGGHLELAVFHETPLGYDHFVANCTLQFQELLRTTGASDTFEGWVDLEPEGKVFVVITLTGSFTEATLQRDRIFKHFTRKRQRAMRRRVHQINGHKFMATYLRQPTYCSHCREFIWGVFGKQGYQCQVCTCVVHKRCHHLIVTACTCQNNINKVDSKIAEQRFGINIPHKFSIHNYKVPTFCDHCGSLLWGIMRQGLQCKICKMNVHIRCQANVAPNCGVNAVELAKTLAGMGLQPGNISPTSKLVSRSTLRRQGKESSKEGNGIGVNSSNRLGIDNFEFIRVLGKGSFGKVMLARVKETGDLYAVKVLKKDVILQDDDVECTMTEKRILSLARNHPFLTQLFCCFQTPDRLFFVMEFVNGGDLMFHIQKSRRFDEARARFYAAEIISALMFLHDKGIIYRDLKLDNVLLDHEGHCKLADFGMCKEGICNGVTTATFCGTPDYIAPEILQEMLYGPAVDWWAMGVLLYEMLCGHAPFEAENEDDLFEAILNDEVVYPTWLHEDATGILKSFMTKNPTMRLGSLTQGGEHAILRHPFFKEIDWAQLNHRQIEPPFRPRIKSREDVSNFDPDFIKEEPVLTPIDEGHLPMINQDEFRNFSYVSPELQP

[18] = target: kinases (KINOMEscan panel) (Homo sapiens, UniProt Q9HC98); details: kinase NEK6; NEW KINOMEscan

Row | SMILES | KINOMEscan PIK3CA(E542K) [1] | KINOMEscan CSNK1G2 [2] | KINOMEscan AURKB [3] | KINOMEscan KIT(V559D,T670I) [4] | KINOMEscan CHUK/IKK-alpha [5] | KINOMEscan MAP3K1 [6] | KINOMEscan NEK2 [7] | KINOMEscan PRKACA [8] | KINOMEscan PIP4K2B [9] | KINOMEscan LRRK2(G2019S) [10] | KINOMEscan EGFR(L861Q) [11] | KINOMEscan MARK1 [12] | KINOMEscan ABL1(F317L)-nonphosphorylated [13] | KINOMEscan ABL1(F317L)-phosphorylated [13] | KINOMEscan ElF2AK2/EIF2AK1 [14] | KINOMEscan LRRK2 [15] | KINOMEscan PLK2 [16] | KINOMEscan PRKCH [17] | KINOMEscan NEK6 [18]
1 | Cc1cccc(-c2nc(Nc3ccc4nn(C)cc4c3)c3ccccc3n2)n1 [NK167] | 15 | 12 | 0 | 13 | 0 | 0 | 0 | 12 | 0 | 39 | 0 | 21 | 30 | 0 | 0 | 21 | 0 | 21 | 0
2 | Cc1cccc(-c2nc(N(C)c3ccc4ncsc4c3)c3ccccc3n2)n1 [NK-161] | 19 | 25 | 0 | 14 | 20 | 0 | 1 | 17 | 0 | 31 | 0 | 13 | 18 | 0 | 1 | 27 | 0 | 8 | 6
